Experiments:
calf thymus DNA [1] = experiment: Fluorescence emission spectra and enhancement on binding to calf thymus DNA; conditions: 0.4 μM dye; for λF (fluorescence maximum), bound to DNA: pH 7.4 + DNA; for Enhancement (QY + DNA)/(QY - DNA): pH 7.4, DNA:fluorophore ratio of 50 bp:1 or greater
Method: Fluorescence emission spectra of solutions (0.4 μM) of Compounds 1-8 in pH 7.4 buffer (10 mM Tris, 1 mM EDTA and 50 mM NaCl), after sufficient calf thymus DNA (Sigma Chemical Co. D-1501) is added to yield a ratio of 50 DNA base pairs per dye molecule or greater, are recorded on an Alphascan spectrofluorometer (PTI Inc.) with excitation at approximately (λA -25 nm) where λA is the absorption maximum of the dye bound to DNA (Table 2).
Solutions of each of Compounds 1-8 (0.4 μM) in pH 7.4 buffer (10 mM Tris, 1 mM EDTA and 50 mM NaCl) are prepared as above. Fluorescence emission spectra are recorded on an Alphascan spectrofluorometer (PTI Inc.) with excitation at approximately (λA -25 nm) where λA is the absorption maximum of the dye bound to DNA. After sufficient calf thymus DNA (Sigma Chemical Co. D-1501) is added to yield a ratio of 50 DNA base pairs per dye molecule or greater, fluorescence emission spectra are again recorded (Table 2). The spectra are integrated and enhancement ratio (Table 2) is calculated as follows: [formula] in which the ratio (A-)/(A+) is the ratio of the absorbances for the free and bound dye respectively at the excitation wavelength.

calf thymus DNA [2] = experiment: Absorption spectra of dye bound to calf thymus DNA; assay type: binding; conditions: pH 7.4 + DNA, ratio of 50 DNA base pairs per dye molecule or greater
Method: Absorption spectra of solutions of Compounds 1-8 (4 μM) in pH 7.4 buffer (10 mM Tris, 1 mM EDTA and 50 mM NaCl) are recorded on a Perkin-Elmer Lambda 6 spectrophotometer after the addition of sufficient calf thymus DNA (Sigma Chemical Co. D-1501) to yield a ratio of 50 DNA base pairs per dye molecule or greater. The spectra are normalized to a maximum absorbance of 1.0 by numerical rescaling.
The absorption spectrum of Compound 4 in buffer, prepared as for FIG. 1, is recorded on a Perkin-Elmer Lambda 6 spectrophotometer before and after addition of calf thymus DNA. The spectra are not rescaled, illustrating the changes in extinction coefficient and absorption wavelength range accompanying binding to DNA.
(§1) The strength of absorption and/or fluorescence is indicated by the extinction coefficient. The maximum extinction coefficient (εmax) for the unbound dyes is calculated from the longest wavelength absorption maximum according to the Beer-Lambert law based on the known concentration of the solutions. The extinction coefficient for the dye bound to DNA is calculated from the change in maximum absorbance compared to the dye in free aqueous solution. Typically the extinction coefficient for both bound and unbound dyes is between about 50,000 M^-1 cm^-1 and about 150,000 M^-1 cm^-1.
(§2) Solutions of Compounds 1-8 are prepared by accurately weighing 5 mg quantities and dissolving in DMSO (dimethylsulfoxide) to give a 1 mg/ml stock solution. These solutions are diluted 200 fold into either methanol or a pH 7.4 buffer solution comprising 10 mM Tris, 1 mM EDTA and 50 mM NaCl. Each absorption spectrum is recorded on an IBM Instruments 9420 spectrophotometer. The absorption maximum for each dye without the presence of nucleic acid polymers (λA) is tabulated (Table 2). To the solutions of Compounds 1-8 in pH 7.4 buffer is added sufficient calf thymus DNA (Sigma Chemical Co. D-1501) stock solution calculated to yield a ratio of 50 DNA base pairs per dye molecule or greater. The absorption maximum for each dye bound to DNA is again tabulated (Table 2). […] Where the spectra are not rescaled, the changes in extinction coefficient and absorption wavelength range accompanying binding to DNA are clearly illustrated (FIG. 2).

calf thymus DNA [3] = experiment: Dye/nucleic acid affinity: partition coefficient Kp by fluorescence titration with DNA; assay type: binding
Method: The fluorescence intensity (F) determined in a fluorescence plate reader (CytoFluor from Millipore Corporation), is measured versus DNA concentration expressed in terms of base pairs concentration (B). […] In all the titrations, [Dye]/[Base Pair] is always […] than 3 to fulfill the requirements of the partition model.
The nucleic acid/water partition coefficient (Kp) representing the relative affinity of the dye for DNA is calculated from the fluorescence data according to the following formula:
1/F=[5.6·10^7 /(Kp Fo)](1/B)+1/Fo
where 5.6·10^7 (μM) is water molar concentration; B is the concentration of base pairs; and Fo is the fluorescence enhancement at saturation. Table 3 gives the Kp values of representative dyes via the partition model in the presence of 10% ethanol.

[4] = Absorption spectra of free dye in methanol or pH 7.4 buffer; assay type: physicochemical; conditions: no DNA
Method: as §1, §2

DNA or RNA = experiment: Optical properties upon binding with DNA or RNA (general statements); conditions: binding to nucleic acid polymers
Source text: The enhanced fluorescence of the dyes in the bound versus unbound state is exemplified in Table 2. In particular, the absorption curve typically shifts to a longer wavelength. Typically, the absorption curve shift is between about 5 and about 20 nm. […] When combined with nucleic acid polymers, the novel dyes of this invention generally have a Stokes shift of between about 15 to about 30 nm. Table 2 includes the excitation and emission maxima (λA and λF respectively) for Compounds 1-8.
The fluorescence of the novel dyes bound to DNA or RNA is enhanced at least about 9 fold. Typically fluorescence is enhanced at least about 100 fold, sometimes as much as 1000 fold or more, depending on the amount and purity of the dye present in the sample (Table 2). This significant increase in fluorescence intensity reduces or eliminates the problem of background fluorescence due to unbound dye, thus avoiding the necessity to separate the unbound dye before measuring the fluorescence. Even where the dyes are intrinsically fairly fluorescent, however, such that the enhancement in fluorescence quantum yield which results from binding to nucleic acid polymers is less than 10 fold (e.g. Compound 5), the significant shift in absorption maxima that results from such binding (see Table 2, FIG. 2) can be used to quantitatively or qualitatively measure the presence of nucleic acid polymers.

[5] = test system: DNA of mouse fibroblast 3T3 cells; experiment: Analysis of cellular DNA content (lysed 3T3 cells, fluorescence); assay type: cell-based
Method: Mouse fibroblast 3T3 cells aliquoted into microtiter plates are subjected to a freeze/thaw protocol to lyse cells and release DNA into solution. Compound 3 in TNE buffer is added to each well and the plates are scanned in a Cytofluor 2350 microtiter plate reader (Millipore Corp.) with excitation at 485 nm and emission detected at 530 nm. […] Treatment of half the wells with 20 μg/ml DNAse 1 for one hour at 37° C. in DNAse 1 buffer (10 mM MnCl2, 50 mM TRIS, pH 7.7) eliminates more than 95% of the fluorescence (filled circles).
The method of Rago et al. [Analytical Biochemistry 191, 31 (1990)] is adapted for use with the nucleotide-specific stain Compound 3. 3T3 cells (a mouse fibroblast cell line) are aliquoted into 96-well microtiter plates and allowed to adhere over a period of 4 hours. Cell numbers used are between 100 and 100,000 in 100 μl of Dulbecco's Modified Eagle Medium (DMEM). […]
For fluorescence analysis, 100 μl of distilled water is added to each well and the plates incubated at 37° C. for one hour, frozen at -80° C. then thawed to room temperature. […] 100 μl of 10 μM Compound 3 in TNE buffer (2 M NaCl, 10 mM TRIS, 1 mM EDTA pH 7.4) is added to each well and the plates scanned in a Cytofluor 2350 microtiter plate reader (Millipore Corp.) with excitation at 485 nm and emission detected at 530 nm. […]

Compound | λF (fluorescence maximum), bound to DNA (calf thymus DNA [1]) [nm] | εmax (extinction coefficient), bound to DNA (calf thymus DNA [2]) | λA (absorption maximum), bound to DNA (calf thymus DNA [2]) [nm] | εmax (extinction coefficient) ([4]; methanol) | λA (absorption maximum) ([4]; methanol) [nm] | εmax (extinction coefficient) ([4]; pH 7.4 buffer) | λA (absorption maximum) ([4]; pH 7.4 buffer) [nm] | enhancement in fluorescence quantum yield on binding (DNA or RNA) | Enhancement (QY + DNA)/(QY - DNA) (calf thymus DNA [1]) [x] | effect of ethanol on DNA affinity (Kp) (calf thymus DNA [3]; 10% ethanol) | apparent affinity Kp, effect of dye concentration (calf thymus DNA [3]; binding buffer without ethanol, 0.1 vs 0.22 μM dye) | fluorescence eliminated by DNAse 1 treatment ([5]; 20 μg/ml DNAse 1, one hour, 37° C.) | fluorescence versus cell number ([5]; Ex 485 nm, Em 530 nm, TNE buffer)
C[n+]1c(C=CC=C2C=CN(CCC[N+](C)(C)C)c3ccccc32)oc2ccccc21 [Compound 7] | 631 | 100,100 M^-1 cm^-1 | 612 | 133,100 M^-1 cm^-1 | 600 | 122,000 M^-1 cm^-1 | 596 | – | 155 | – | – | – | –
C[n+]1c(C=CC=C2C=CN(CCC[N+](C)(C)C)c3ccccc32)sc2ccccc21 [Compound 8] | 661 | 102,000 M^-1 cm^-1 | 642 | 143,200 M^-1 cm^-1 | 635 | 98,200 M^-1 cm^-1 | 631 | – | 80 | – | – | – | –
C[n+]1c(C=C2C=CN(CCC[N+](C)(C)C)c3ccccc32)oc2ccccc21 [Compound 3] | 509 | 52,013 M^-1 cm^-1 | 491 | 72,600 M^-1 cm^-1 | 482 | 66,000 M^-1 cm^-1 | 481 | – | 925 | – | – | more than 95% | linear increase of fluorescence with cell number

The next lines start with results.

λF (fluorescence maximum), bound to DNA (calf thymus DNA [1]) [nm] | εmax (extinction coefficient), bound to DNA (calf thymus DNA [2]) | λA (absorption maximum), bound to DNA (calf thymus DNA [2]) [nm] | εmax (extinction coefficient) ([4]; methanol) | λA (absorption maximum) ([4]; methanol) [nm] | εmax (extinction coefficient) ([4]; pH 7.4 buffer) | λA (absorption maximum) ([4]; pH 7.4 buffer) [nm] | enhancement in fluorescence quantum yield on binding (DNA or RNA) | Compound | Enhancement (QY + DNA)/(QY - DNA) (calf thymus DNA [1]) [x] | effect of ethanol on DNA affinity (Kp) (calf thymus DNA [3]; 10% ethanol) | apparent affinity Kp, effect of dye concentration (calf thymus DNA [3]; binding buffer without ethanol, 0.1 vs 0.22 μM dye) | fluorescence eliminated by DNAse 1 treatment ([5]; 20 μg/ml DNAse 1, one hour, 37° C.) | fluorescence versus cell number ([5]; Ex 485 nm, Em 530 nm, TNE buffer)
531 | 62,800 M^-1 cm^-1 | 515 | 73,800 M^-1 cm^-1 | 507 | 68,500 M^-1 cm^-1 | 506 | – | C[n+]1c(C=C2C=CN(CCC[N+](C)(C)C)c3ccccc32)sc2ccccc21 [Compound 4] | 1806 | ethanol decreases the DNA affinity | larger with 0.1 μM dye than with 0.22 μM | – | –
455 | 50,100 M^-1 cm^-1 | 435 | 77,500 M^-1 cm^-1 | 423 | 75,500 M^-1 cm^-1 | 423 | – | C[n+]1c(C=C2C=CN(CCC[N+](C)(C)C)C=C2)oc2ccccc21 [Compound 1] | 456 | – | – | – | –
481 | 58,100 M^-1 cm^-1 | 462 | 80,200 M^-1 cm^-1 | 452 | 76,200 M^-1 cm^-1 | 451 | – | C[n+]1c(C=C2C=CN(CCC[N+](C)(C)C)C=C2)sc2ccccc21 [Compound 2] | 892 | – | – | – | –
562 | – | 532 | – | 525 | – | 523 | less than 10 fold | C[n+]1c(C=CC=CC=C2C=CN(CCC[N+](C)(C)C)C=C2)oc2ccccc21 [Compound 5] | 9 | – | – | – | –
599 | – | 575 | – | 564 | – | 560 | – | C[n+]1c(C=CC=CC=C2C=CN(CCC[N+](C)(C)C)C=C2)sc2ccccc21 [Compound 6] | 29 | – | – | – | –
